Laboratory results taken from patent US11560385B2, “Proteasome activity enhancing compounds” (Proteostasis Therapeutics, Inc., priority 2018, dated 2023).

Each molecule was assayed against USP14 (Homo sapiens (Human), UniProt P54578) (assay: Usp14 inhibition assay (Example 5A, A-series compounds)). Settings: average value from a minimum of two experimental determinations; read-out: Usp14 IC50 Category.
Sequence of USP14 (P54578 whole entry, looked up): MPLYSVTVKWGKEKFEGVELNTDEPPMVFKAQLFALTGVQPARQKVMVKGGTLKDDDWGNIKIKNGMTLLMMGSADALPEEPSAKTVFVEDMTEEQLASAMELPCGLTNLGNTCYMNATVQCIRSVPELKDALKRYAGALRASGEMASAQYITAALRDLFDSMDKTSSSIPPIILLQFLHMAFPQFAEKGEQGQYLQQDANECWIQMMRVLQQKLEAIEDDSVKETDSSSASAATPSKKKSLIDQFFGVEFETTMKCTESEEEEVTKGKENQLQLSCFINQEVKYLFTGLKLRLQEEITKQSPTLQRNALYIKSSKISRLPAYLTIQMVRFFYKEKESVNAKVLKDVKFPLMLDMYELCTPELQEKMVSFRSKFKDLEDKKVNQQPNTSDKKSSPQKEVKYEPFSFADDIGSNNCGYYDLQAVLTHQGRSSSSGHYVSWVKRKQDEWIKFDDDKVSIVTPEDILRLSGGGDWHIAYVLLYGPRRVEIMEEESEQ
Assay type: biochemical
Text: Example 5A: Usp14 Inhibition Assay
The IC50 values in the Table below represent the average value from a minimum of two experimental determinations.
With `Cc1c(C(=O)CN2C3CCC2CC3)c2ccc(CC#N)cc2n1-c1ccc(Cl)cc1` [Example 30A] the IC50 was 50 to 100 nM.
Work on `Cc1c(C(=O)CN2[C@@H]3CC[C@H]2C[C@H](O)C3)c2ccc(CCC#N)cc2n1-c1ccc(Cl)cc1` [Example 21A, 3-(1-(4-Chlorophenyl)-3-(2-((1R,3S,5S)-3-hydroxy-8-azabicyclo[3.2.1]octan-8-yl)acetyl)-2-methyl-1H-indol-6-yl)propanenitrile] yielded an IC50 of 50 to 100 nM.
For `Cc1c(C(=O)CN2C3CCC2CC3)c2ccc(CCS(=O)(=O)C3CC3)cc2n1-c1ccc(Cl)cc1` [Example 16A, 2-(7-Azabicyclo[2.2.1]heptan-7-yl)-1-(1-(4-chlorophenyl)-6-(2-(cyclopropylsulfonyl)ethyl)-2-methyl-1H-indol-3-yl)ethan-1-one], the IC50 was < 50 nM.
In the case of `Cc1c(C(=O)CN2C3CCC2CC(O)C3)c2ccc(CCC3=NCCN3C)cc2n1-c1ccc(Cl)cc1` [Example 29A, 1-(1-(4-Chlorophenyl)-2-methyl-6-(2-(1-methyl-4,5-dihydro-1H-bimidazol-2-yl)ethyl)-1H-indol-3-yl)-2-((1R,3R,5S)-3-hydroxy-8-azabicyclo[3.2.1]octan-8-yl)ethan-1-one], the IC50 is reported as < 50 nM.
With `Cc1c(C(=O)CN2CCC(O)CC2)c2ccc(CC3COC3)cc2n1-c1ccc(Cl)cc1` [Example 14A, 1-(1-(4-Chlorophenyl)-2-methyl-6-(oxetan-3-ylmethyl)-1H-indol-3-yl)-2-(4-hydroxypiperidin-1-yl)ethan-1-one] the IC50 was 50 to 100 nM.
`Cc1c(C(=O)CN2C3CCC2CC(O)C3)c2ccc(CCCC#N)cc2n1-c1ccc(Cl)cc1` (stereo not shown) [Example 25A, 4-(1-(4-Chlorophenyl)-3-(2-(3-hydroxy-8-azabicyclo[3.2.1]octan-8-yl)acetyl)-2-methyl-1H-indol-6-yl)butanenitrile] was tested, and the IC50 was > 100 nM.
Work on `Cc1c(C(=O)CN2C3CCC2CC3)c2ccc(CS(C)(=O)=O)cc2n1-c1ccc(Cl)cc1` [Example 3A, 2-(7-Azabicyclo[2.2.1]heptan-7-yl)-1-(1-(4-chlorophenyl)-2-methyl-6-((methylsulfonyl)methyl)-1H-indol-3-yl)ethan-1-one] yielded an IC50 of 50 to 100 nM.
With `CO[C@H]1C[C@@H]2CC[C@H]1N2CC(=O)c1c(C)n(-c2ccc(Cl)cc2)c2cc(CC3COC3)ccc12` [Example 12A, 1-(1-(4-Chlorophenyl)-2-methyl-6-(oxetan-3-ylmethyl)-1H-indol-3-yl)-2-((1R,2S,4S)-2-methoxy-7-azabicyclo[2.2.1]heptan-7-yl)ethan-1-one] the IC50 was 50 to 100 nM.
`Cc1c(C(=O)CN2[C@@H]3CC[C@H]2C[C@@H](O)C3)c2ccc(CC3COC3)cc2n1-c1ccc(Cl)cc1` [Example 22A, 1-(1-(4-Chlorophenyl)-2-methyl-6-(oxetan-3-ylmethyl)-1H-indol-3-yl)-2-((1R,3r,5S)-3-hydroxy-8-azabicyclo[3.2.1]octan-8-yl)ethan-1-one] showed an IC50 of 50 to 100 nM.
In the case of `Cc1c(C(=O)CN2C3CCC2CC(O)C3)c2ccc(CCC#N)cc2n1-c1ccc(Cl)cc1` [Example 20A, 3-(1-(4-Chlorophenyl)-3-(2-((1R,3R,5S)-3-hydroxy-8-azabicyclo[3.2.1]octan-8-yl)acetyl)-2-methyl-1H-indol-6-yl)propanenitrile], the IC50 is reported as > 100 nM.
For `CO[C@H]1CC2CCC1N2CC(=O)c1c(C)n(-c2ccc(Cl)cc2)c2cc(CCCC#N)ccc12` (mixture of isomers) [Example 19A, (±)-4-(1-(4-Chlorophenyl)-3-(2-((2S)-2-methoxy-7-azabicyclo[2.2.1]heptan-7-yl)acetyl)-2-methyl-1H-indol-6-yl)butanenitrile], the IC50 was < 50 nM.
In the case of `Cc1c(C(=O)CN2C3CCCC2CC3)c2ccc(CCC#N)cc2n1-c1ccc(Cl)cc1` [Example 33A, 3-(3-(2-(8-Azabicyclo[3.2.1]octan-8-yl)acetyl)-1-(4-chlorophenyl)-2-methyl-1H-indol-6-yl)propanenitrile], the IC50 is reported as < 50 nM.
Work on `Cc1c(C(=O)CN2[C@@H]3CC[C@H]2C[C@H](O)C3)c2ccc(CCS(=O)(=O)C3CC3)cc2n1-c1ccc(Cl)cc1` [Example 24A, 1-(1-(4-Chlorophenyl)-6-(2-(cyclopropylsulfonyl)ethyl)-2-methyl-1H-indol-3-yl)-2-((1R,3s,5S)-3-hydroxy-8-azabicyclo[3.2.1]octan-8-yl)ethan-1-one] yielded an IC50 of 50 to 100 nM.
For `CO[C@H]1CC2CCC1N2CC(=O)c1c(C)n(-c2ccc(Cl)cc2)c2cc(CCC#N)ccc12` (mixture of isomers) [Example 15A, (±)-3-(1-(4-Chlorophenyl)-3-(2-((2S)-2-methoxy-7-azabicyclo[2.2.1]heptan-7-yl)acetyl)-2-methyl-1H-indol-6-yl)propanenitrile], the IC50 was < 50 nM.
`Cc1c(C(=O)CN2[C@@H]3CC[C@H]2C[C@](O)(C(C)C)C3)c2ccc(CCC#N)cc2n1-c1ccc(Cl)cc1` [Example 32A, 3-(1-(4-Chlorophenyl)-3-(2-(3-hydroxy-3-isopropyl-8-azabicyclo[3.2.1]octan-8-yl)acetyl)-2-methyl-1H-indol-6-yl)propanenitrile] gave an IC50 of 50 to 100 nM.
With `Cc1c(C(=O)CN2C3CCC2CC3)c2ccc(CC3COC3)cc2n1-c1ccc(Cl)cc1` [Example 11A, 2-(7-Azabicyclo[2.2.1]heptan-7-yl)-1-(1-(4-chlorophenyl)-2-methyl-6-(oxetan-3-ylmethyl)-1H-indol-3-yl)ethan-1-one] the IC50 was < 50 nM.
In the case of `Cc1c(C(=O)CN2C3CC[C@@H]2C[C@](O)(C(C)(C)C)C3)c2ccc(CCC#N)cc2n1-c1ccc(Cl)cc1` (stereo in doubt) [Example 31A, 3-(3-(2-(3-(tert-Butyl)-3-hydroxy-8-azabicyclo[3.2.1]octan-8-yl)acetyl)-1-(4-chlorophenyl)-2-methyl-1H-indol-6-yl)propanenitrile], the IC50 is reported as > 100 nM.
In the case of `Cc1c(C(=O)CN2C3CCC2[C@@H](O)C3)c2ccc(CCC#N)cc2n1-c1ccc(Cl)cc1` (mixture of isomers) [Example 10A, (±)-3-(1-(4-Chlorophenyl)-3-(2-((2S)-2-hydroxy-7-azabicyclo[2.2.1]heptan-7-yl)acetyl)-2-methyl-1H-indol-6-yl)propanenitrile], the IC50 is reported as < 50 nM.
For `Cc1c(C(=O)CN2C3CCC2C(O)C3)c2ccc(CC3COC3)cc2n1-c1ccc(Cl)cc1` (stereo in doubt) [Example 13A, 1-(1-(4-Chlorophenyl)-2-methyl-6-(oxetan-3-ylmethyl)-1H-indol-3-yl)-2-((1R,2R,4S)-2-hydroxy-7-azabicyclo[2.2.1]heptan-7-yl)ethan-1-one], the IC50 was < 50 nM.
In the case of `Cc1c(C(=O)CN2C3CCC2CC(O)C3)c2ccc(CCS(=O)(=O)C3CC3)cc2n1-c1ccc(Cl)cc1` [Example 23A, 1-(1-(4-Chlorophenyl)-6-(2-(cyclopropylsulfonyl)ethyl)-2-methyl-1H-indol-3-yl)-2-((1R,3R,5S)-3-hydroxy-8-azabicyclo[3.2.1]octan-8-yl)ethan-1-one], the IC50 is reported as < 50 nM.
For `Cc1c(C(=O)CN2[C@H]3CC[C@@H]2[C@@H](O)C3)c2ccc(CCS(C)(=O)=O)cc2n1-c1ccc(Cl)cc1` [Example 6A, 1-(1-(4-Chlorophenyl)-2-methyl-6-(2-(methylsulfonyl)ethyl)-1H-indol-3-yl)-2-((1R,2S,4S)-2-hydroxy-7-azabicyclo[2.2.1]heptan-7-yl)ethan-1-one], the IC50 was < 50 nM.
With `Cc1c(C(=O)CN2C3CCC2CC3)c2ccc(CCCC#N)cc2n1-c1ccc(Cl)cc1` [Example 17A, 4-(3-(2-(7-Azabicyclo[2.2.1]heptan-7-yl)acetyl)-1-(4-chlorophenyl)-2-methyl-1H-indol-6-yl)butanenitrile] the IC50 was < 50 nM.
